What all share (type): cell-based, human
For one series, the system named is KIM-1 mRNA. Kind of series: KIM-1 mRNA qRT-PCR in hRPTECs. Also on record: key to Upregulation of KIM-1 hRPTECs R: +: statistically significant increase; −: no significant increase. Conditions: mRNA levels; 72 h time point. The method, then:
HK-2 cells (ATCC CRL-2190; Manassas, VA) were maintained in DMEM/F12 (Life Technologies; Sydney, NSW, Australia) supplemented with 5 μg/mL insulin, 5 μg/mL transferrin, 5 ng/mL sodium selenite (ITS; Roche; […] (passage 2) and culture kits were purchased from Lonza. […] were maintained in Renal Epithelial Cell BulletKitTM (CC-3190, Lonza) at 37°C and 5% CO2 atmosphere. Cells were passaged to 96-well plates with a density of 4000 cells/well. After 24 h culture, compounds with different concentration series were added into each well and incubated for 4, 24, 48, and 72 h. HK-2 and […] were treated with compounds for 4, 24, 48, and 72 h, then the cells were lysed and the RNA reverse transcribed with the TaqMan® Gene Expression Cells-to-CTTM Kit (Life Technologies) according to the manufacturer's instructions. […] Hs00273334_m1), Lcn2 (NGAL; Hs01008571_m1), and Csf1 (M-CSF; Hs00174164_m1). All probes span an exon-exon junction. The real-time quantitative reverse transcription PCR (qRT-PCR) was performed in a 10 μl final reaction mixture using a ViiA 7TM system (Applied Biosystems®, Sydney, NSW, Australia) based on the following thermo cycling conditions: 10 min at 95°C for one cycle, 15 sec at 95°C, 60 sec at 60°C for 40 cycles. The ViiA 7TM software was used for data analysis with Hprt1 expression used for normalization. All assays were performed at least three times, with at least two technical replicates in each assay.

Another series deals with NGAL. Put plainly: NGAL protein ELISA in freshly isolated hPT cells. Conditions: for NGAL protein upregulation in hPT cells: high doses, within 24 h; for Upregulation of NGAL hPT P(L): protein levels in cell lysates, table title says 72 h time point. The method, then:
hPT cells were derived from whole human kidneys procured by the International Institute for the Advancement of Medicine (Edison, NJ). All tissues were scored by a pathologist as normal (i.e., derived from noncancerous, nondiseased tissue). […] Whole kidneys were perfused with Wisconsin medium and kept on ice until they arrived at the laboratory, which was usually within 24 h of removal from the donor. All buffers were continuously bubbled with 95% O2/5% CO2 and were maintained at 37°C. Minced cortical pieces from whole kidneys were subjected to collagenase digestion for 60 min, after which the supernatant was filtered through a 70-μm mesh filter to remove tissue fragments, centrifuged at 150g for 7 min, and the pellet resuspended in Dulbecco’s Modified Eagle’s Medium: […] Approximately, 5–7 × 10^6 cells were obtained per 1 g of human kidney cortical tissue. […] Composition of this supplemented medium was based on earlier work establishing optimal conditions for primary culture of rat PT cells (Lash et al., [1995]). Basal medium was a 1:1 mixture of DMEM/F12. […] Cultures were grown at 37°C in a humidified incubator under an atmosphere of 95% air/5% CO2 at pH 7.4. Cultures were grown to approximately 80–90% confluence (generally 5–6 days) prior to experiments. Cells were harvested by either scraping the flasks with a Teflon scraper or by brief incubation with Cellstripper (Cellgro, Herndon, VA) (in Ca^2+- and Mg^2+-free Hanks’ buffer). KIM-1 (DY1750), NGAL (DY1757), and M-CSF (DY216) Duo-Set® ELISA kits were purchased from R&D systems (Minneapolis, MN). Sandwich-ELISA experiments were conducted following the manufacturer’s instructions with slight modifications. A 96-well microplate (MaxiSorp®, Nunc, Thermo Scientific, NSW, Australia) was coated with 100 μL of capture antibodies (diluted 1:200 in PBS) and incubated overnight. The plate was then washed twice with washing buffer (0.05% Tween 20 in PBS, pH 7.4) and blocked by adding 300 μL of blocking buffer (1% bovine serum albumin (BSA) in PBS) for 1 h at room temperature. After washing two times with PBS, 100 μL of samples (cell culture media or cell lysates) or standards were then added to each well and incubated for 2 h at room temperature. The biotinylated detection antibodies were then diluted in blocking buffer, added to each well and incubated for 2 h. Horseradish peroxidase (HRP)-labeled streptavidin (100 μL) was then added to bind to detection antibodies. To each well, 100 μL of substrate solution (1:1 mixture of H2O2 and tetramethylbenzidine) was added and incubated for 20 min before reaction termination with 50 μL of stop solution (2N H2SO4). The optical density of each well was measured at 450 nm using a POLARstar Omega plate reader (BMG Labtech). All assays were performed at least three times, with at least two technical replicates in each assay.

Series [1] deals with KIM-1. Put plainly: KIM-1 protein ELISA in hRPTECs. Conditions: protein levels in culture medium; 72 h time point. Also on record: key to Upregulation of KIM-1 hRPTECs P: +: statistically significant increase; −: no significant increase. The method, then:
(§1) HK-2 cells (ATCC CRL-2190; Manassas, VA) were maintained in DMEM/F12 (Life Technologies; Sydney, NSW, Australia) supplemented with 5 μg/mL insulin, 5 μg/mL transferrin, 5 ng/mL sodium selenite (ITS; Roche; […] (passage 2) and culture kits were purchased from Lonza. […] were maintained in Renal Epithelial Cell BulletKitTM (CC-3190, Lonza) at 37°C and 5% CO2 atmosphere. Cells were passaged to 96-well plates with a density of 4000 cells/well. After 24 h culture, compounds with different concentration series were added into each well and incubated for 4, 24, 48, and 72 h. KIM-1 (DY1750), NGAL (DY1757), and M-CSF (DY216) Duo-Set® ELISA kits were purchased from R&D systems (Minneapolis, MN). Sandwich-ELISA experiments were conducted following the manufacturer's instructions with slight modifications. A 96-well microplate (MaxiSorp®, Nunc, Thermo Scientific, NSW, Australia) was coated with 100 μL of capture antibodies (diluted 1:200 in PBS) and incubated overnight. The plate was then washed twice with washing buffer (0.05% Tween 20 in PBS, pH 7.4) and blocked by adding 300 μL of blocking buffer (1% bovine serum albumin (BSA) in PBS) for 1 h at room temperature. After washing two times with PBS, 100 μL of samples (cell culture media or cell lysates) or standards were then added to each well and incubated for 2 h at room temperature. The biotinylated detection antibodies were then diluted in blocking buffer, added to each well and incubated for 2 h. Horseradish peroxidase (HRP)-labeled streptavidin (100 μL) was then added to bind to detection antibodies. To each well, 100 μL of substrate solution (1:1 mixture of H2O2 and tetramethylbenzidine) was added and incubated for 20 min before reaction termination with 50 μL of stop solution (2N H2SO4). The optical density of each well was measured at 450 nm using a POLARstar Omega plate reader (BMG Labtech). All assays were performed at least three times, with at least two technical replicates in each assay.

The subject of series [2] is KIM-1. Put plainly: KIM-1 protein ELISA in HK-2 cells. Also on record: key: +: statistically significant increase; −: no significant increase. The conditions noted are these: protein levels in culture medium; 72 h time point. The method, then: as §1

Structures can show the parent of a compound that is named as a salt.

Turning to Colistin sulfate, the “Upregulation of KIM-1 hRPTECs R” value with KIM-1 mRNA was “−”. For the same compound, in the series on NGAL, the “NGAL protein upregulation in hPT cells” value is given as “significant upregulation” and the “Upregulation of NGAL hPT P(L)” value is on record as >60-fold. Moreover, the “Upregulation of KIM-1 hRPTECs P” value in the series on KIM-1 [1] is recorded as “+”. In addition, in the series with KIM-1 [2], the “Upregulation of KIM-1 HK-2 P” value is on record as “−”.
Take `CNC(C)C1CCC(N)C(OC2C(N)CC(N)C(OC3OCC(C)(O)C(NC)C3O)C2O)O1` (stereo not drawn) [Gentamicin, gentamicin sulfate]: the “Upregulation of KIM-1 hRPTECs R” value in the series on KIM-1 mRNA is “−”. In the series on NGAL, the “NGAL protein upregulation in hPT cells” value was “significant upregulation” and the “Upregulation of NGAL hPT P(L)” value was >60-fold. For the same compound, the “Upregulation of KIM-1 hRPTECs P” value in the series on KIM-1 [1] was “+”. For the same compound, in the series on KIM-1 [2], the “Upregulation of KIM-1 HK-2 P” value is “−”.
As to `N.N.[Cl][Pt][Cl]` [Cisplatin, cisplatin], the “Upregulation of KIM-1 hRPTECs R” value in the series with KIM-1 mRNA is on record as “−”. For the same compound, in the series on NGAL, the “NGAL protein upregulation in hPT cells” value is on record as “significant upregulation” and the “Upregulation of NGAL hPT P(L)” value was >60-fold. Further, the “Upregulation of KIM-1 hRPTECs P” value in the series on KIM-1 [1] is given as “+”. The “Upregulation of KIM-1 HK-2 P” value in the series on KIM-1 [2] is “−”.

For the origin of these results see paper PMC4492764, “Evaluation of biomarkers for in vitro prediction of drug-induced nephrotoxicity: comparison of HK-2, immortalized human proximal tubule epithelial, and primary cultures of human proximal tubular cells” (Pharmacology Research & Perspectives, 2015).
